Data set [1] concerns the target T1, US28 receptor (Human cytomegalovirus, UniProt P69332).
T1 construct: expressed in transfected cells; host or cells: HEK 293T cells, transiently transfected
The data set can be described thus: PathDetect trans Elk1 luciferase reporter gene assay in US28-transfected 293T HEK cells. The class given is cell-based, Human Cytomegalovirus (HCMV). The settings on record: for type of activity on the US28 receptor (agonist / inverse agonist / none), in words: Elk1 reporter, US28-transfected HEK cells. The method, boiled down:
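HEK293T cells transiently transfected with Elk1, Luc and US28 vector (empty pcDNA3 for mock) were dosed with compounds in DMEM/1% FBS with 1% DMSO for 20-24 h at 37° C. Bright-Glo luminescence decrease was read; EC50 is halfway between maximal response and no-compound control, by non-linear regression.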
A general note: In a reporter assay the amount or activity of a reporter protein is the signal.

Data set [2] has as its system HIV-1 BaL. The data set can be described thus: Anti-HIV assay (luciferase, HIV-1 BaL infection). The class given is cell-based. Put shortly: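 Cells infected with HIV-1 BaL at 2 ng/mL p24 (MOI approx 0.02) in compound presence. Infection read out by luciferase.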
[3] abbreviates: 293T HEK cells transiently expressing US28, Elk1 reporter, NE = no effect when tested at 10 μM of compound.
[4] abbreviates: 10 μM, Experiment 1B, 2 ng/mL p24 HIV-1 BaL.
Where [5] appears, read: Human immunodeficiency virus 1, BAL, 1.25 μM, Experiment 2B.
[6] abbreviates: Human immunodeficiency virus 1, BAL, 2.5 μM, Experiment 2B.
Where [7] appears, read: Human immunodeficiency virus 1, BAL, 5 μM, Experiment 2B.
Where [8] appears, read: Human immunodeficiency virus 1, BAL, 10 μM, Experiment 1B, 2 ng/mL p24 HIV-1 BaL.
[9] abbreviates: Human immunodeficiency virus 1, BAL, 10 μM, Experiment 2B.
The mark [10] stands for this setting: Human immunodeficiency virus 1, BAL, 20 μM, Experiment 2B.
The mark [11] stands for this setting: EC50 (μM), 293T HEK cells transiently expressing US28, Elk1 reporter, NE = no effect when tested at 10 μM of compound.
The mark [12] stands for this setting: Human immunodeficiency virus 1, BAL, 40 μM, Experiment 2B.
The mark [13] stands for this setting: Human immunodeficiency virus 1, BAL, 80 μM, Experiment 2B.

This note sets out measurements from patent US9629822B2, “Flavonoid based antiviral targets” (UNIVERSITY OF CENTRAL FLORIDA RESEARCH FOUNDATION, INC., priority 2012, dated 2017).

The inhibition is the drop in the measured response relative to a control, in per cent. As a reminder, the IC50 is the concentration that gives 50% inhibition. The low end stands for higher potency, the high end for lower potency. By EC50 is commonly meant the concentration at which the effect is half-maximal. Broadly, the melting point is the temperature, or range, at which the solid turns liquid.

The structures appear in SMILES notation.

T1 sequence (P69332 whole entry): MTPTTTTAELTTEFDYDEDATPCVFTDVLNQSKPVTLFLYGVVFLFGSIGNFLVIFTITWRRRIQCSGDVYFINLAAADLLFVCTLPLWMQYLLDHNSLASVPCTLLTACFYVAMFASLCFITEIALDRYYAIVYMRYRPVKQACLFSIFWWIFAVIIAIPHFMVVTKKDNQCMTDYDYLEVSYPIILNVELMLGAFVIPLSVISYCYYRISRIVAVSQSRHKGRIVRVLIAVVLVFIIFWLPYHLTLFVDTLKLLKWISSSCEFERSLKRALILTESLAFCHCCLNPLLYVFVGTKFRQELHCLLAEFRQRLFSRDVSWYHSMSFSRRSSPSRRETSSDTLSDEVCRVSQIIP

Consider `COc1ccc(Br)cc1/C=C/C(=O)c1c(O)cccc1OCc1ccccc1` [Compound 8l, (E)-1-(2-(Benzyloxy)-6-hydroxyphenyl)-3-(5-bromo-2-methoxyphenyl)prop-2-en-1-one], for which, in data set [1] (setting [3]), the “EC50 (μM)” value was “Toxic”. Also, the “RLU (relative luciferase units)” value was determined as 262.26 RLU in data set [2] (1.25 μM, Experiment 2B); 215.14 RLU in data set [2] (2.5 μM, Experiment 2B); 125.95 RLU in data set [2] (5 μM, Experiment 2B); 57.3 RLU in data set [2] (setting [4]); 23.18 RLU in data set [2] (10 μM, Experiment 2B); 16.87 RLU in data set [2] (20 μM, Experiment 2B). Further, the inhibition at 1.25 µM in data set [2] (setting [5]) is -0.55%. Moreover, the inhibition at 2.5 µM in data set [2] (setting [6]) amounted to 17.2%. Moreover, the inhibition at 5 µM in data set [2] (setting [7]) turned out to be 54.4%. The inhibition at 10 µM in data set [2] (setting [8]) was 93.9%; in data set [2] (setting [9]) it was 91.5%. Also, the inhibition at 20 µM in data set [2] (setting [10]) amounted to 94.7%. This compound also gave an IC50 in data set [2] (Human immunodeficiency virus 1, BAL, inferred from 54.36% inhibition at 5 μM) below 5 µM.

The compound `COc1ccc(Br)cc1/C=C/C(=O)c1ccc2ccccc2c1O` [Compound 8m, (E)-3-(5-bromo-2-methoxyphenyl)-1-(1-hydroxynaphthalen-2-yl)prop-2-en-1-one] registered a melting point of 117 to 127 °C. This compound gave an EC50 in data set [1] (pEC50 ± SEM, 293T HEK cells transiently expressing US28, Elk1 reporter) of 2.88 µM. In data set [2] (1.25 μM, Experiment 2B), the “RLU (relative luciferase units)” value is recorded as 324.10 RLU. Moreover, the “RLU (relative luciferase units)” value in data set [2] (2.5 μM, Experiment 2B) is recorded as 283.48 RLU. Besides, the “RLU (relative luciferase units)” value in data set [2] (5 μM, Experiment 2B) is listed as 251.02 RLU. Besides, the “RLU (relative luciferase units)” value in data set [2] (setting [4]) is given as 437.6 RLU. The “RLU (relative luciferase units)” value in data set [2] (10 μM, Experiment 2B) was 170.42 RLU. Further, the “RLU (relative luciferase units)” value in data set [2] (20 μM, Experiment 2B) is recorded as 160.21 RLU. Besides, the inhibition at 1.25 µM in data set [2] (setting [5]) is -24.3%. Also, the inhibition at 2.5 µM in data set [2] (setting [6]) is -9.08%. In data set [2] (setting [7]), the inhibition at 5 µM came out at 9.04%. The inhibition at 10 µM in data set [2] (setting [8]) was 53.3%. Further, in data set [2] (setting [9]), the inhibition at 10 µM stood at 37.7%. Further, the inhibition at 20 µM in data set [2] (setting [10]) amounted to 49.9%.

Take `COc1ccccc1-c1oc2ccccc2c(=O)c1O` [Compound 9a, 3-Hydroxy-2-(2-methoxyphenyl)-4H-chromen-4-one]: the concentration for a half-maximal effect (EC50) in data set [1] (setting [11]) came to 4.6 µM. In addition, the “type of activity on the US28 receptor (agonist / inverse agonist / none), in words” value in data set [1] was “inhibited US28 receptor constitutive activity”. Also, in data set [1] (maximum intrinsic activity from dose-response curve, negative = inverse agonism), the “Efficacy(%)” value is listed as −19%. Further, in data set [1] (read-out: Efficacy(%), maximum intrinsic activity from dose-response curve, negative = inverse agonism), the Emax is -19%. The “RLU (relative luciferase units)” value came out at 16.52 RLU in data set [2] (5 μM, Experiment 2B); 16.51 RLU in data set [2] (10 μM, Experiment 2B); 36.83 RLU in data set [2] (20 μM, Experiment 2B); 65.50 RLU in data set [2] (40 μM, Experiment 2B); 59.24 RLU in data set [2] (80 μM, Experiment 2B). In addition, in data set [2] (setting [7]), the inhibition at 5 µM was -3.31%. Also, the inhibition at 10 µM in data set [2] (setting [9]) is -24.9%. The inhibition at 20 µM in data set [2] (setting [10]) was -21.9%. Moreover, in data set [2] (setting [12]), the inhibition at 40 µM was -25.4%. Also, in data set [2] (setting [13]), the inhibition at 80 µM was -7.86%.

The compound `COc1ccc(Br)cc1-c1oc2ccccc2c(=O)c1O` [Compound 9b, 2-(5-Bromo-2-methoxyphenyl)-3-hydroxy-4H-chromen-4-one] came in with a melting point of 159 to 161 °C. Besides, the EC50 in data set [1] (setting [3]) is above 10 µM. The compound also yielded an EC50 in data set [1] (setting [11]) above 10 µM. In addition, in data set [1], the “type of activity on the US28 receptor (agonist / inverse agonist / none), in words” value is on record as “did not show any activity”. Besides, in data set [2] (5 μM, Experiment 2B), the “RLU (relative luciferase units)” value was 12.99 RLU. Moreover, in data set [2] (setting [4]), the “RLU (relative luciferase units)” value is 736.7 RLU. The “RLU (relative luciferase units)” value in data set [2] (10 μM, Experiment 2B) is given as 23.85 RLU. In addition, in data set [2] (20 μM, Experiment 2B), the “RLU (relative luciferase units)” value is on record as 32.82 RLU. In addition, the “RLU (relative luciferase units)” value in data set [2] (40 μM, Experiment 2B) is given as 47.61 RLU. Moreover, the “RLU (relative luciferase units)” value in data set [2] (80 μM, Experiment 2B) came to 73.47 RLU. In addition, in data set [2] (setting [7]), the inhibition at 5 µM was -7.08%. Further, the inhibition at 10 µM in data set [2] (setting [8]) was 21.3%. Moreover, in data set [2] (setting [9]), the inhibition at 10 µM is -19%. The inhibition at 20 µM in data set [2] (setting [10]) was -25.9%. Also, the inhibition at 40 µM in data set [2] (setting [12]) is -29.8%. The inhibition at 80 µM in data set [2] (setting [13]) amounted to 13.3%.

Compound `COc1ccc(Cl)cc1-c1oc2ccccc2c(=O)c1O` [Compound 9h, 2-(5-chloro-2-methoxyphenyl)-3-hydroxy-4H-chromen-4-one] returned a melting point of 160 to 167 °C. Moreover, a half-maximal effect in data set [1] (setting [11]) (EC50) was put at 1.32 µM. Further, the “type of activity on the US28 receptor (agonist / inverse agonist / none), in words” value in data set [1] was “inverse agonist”. For the same compound, in data set [2] (1.25 μM, Experiment 2B), the “RLU (relative luciferase units)” value is 1.61 RLU. Moreover, the “RLU (relative luciferase units)” value in data set [2] (2.5 μM, Experiment 2B) was 16.44 RLU. Also, in data set [2] (5 μM, Experiment 2B), the “RLU (relative luciferase units)” value worked out at 18.32 RLU. Also, the “RLU (relative luciferase units)” value in data set [2] (setting [4]) amounted to 367.6 RLU. The “RLU (relative luciferase units)” value in data set [2] (10 μM, Experiment 2B) stood at 49.04 RLU. Besides, the “RLU (relative luciferase units)” value in data set [2] (20 μM, Experiment 2B) stood at 20.14 RLU. Besides, the inhibition at 1.25 µM in data set [2] (setting [5]) was -8.02%. Moreover, the inhibition at 2.5 µM in data set [2] (setting [6]) was -10.4%. The inhibition at 5 µM in data set [2] (setting [7]) was -13.9%. Besides, the inhibition at 10 µM in data set [2] (setting [8]) was 60.7%. For the same compound, the inhibition at 10 µM in data set [2] (setting [9]) was 1.57%. Also, the inhibition at 20 µM in data set [2] (setting [10]) turned out to be 7.83%.

Turning to `COc1ccccc1-c1cc(=O)c2c(O)cccc2o1` [Compound 12a, 5-Hydroxy-2-(2-methoxyphenyl)-4H-chromen-4-one], the EC50 in data set [1] (setting [3]) and in data set [1] (setting [11]) was above 10 µM throughout. Also, the “RLU (relative luciferase units)” value in data set [2] (1.25 μM, Experiment 2B) is −3.22 RLU; in data set [2] (2.5 μM, Experiment 2B) it was 28.09 RLU; in data set [2] (5 μM, Experiment 2B) it was 56.78 RLU; in data set [2] (setting [4]), 152.1 RLU; in data set [2] (10 μM, Experiment 2B), 83.62 RLU; in data set [2] (20 μM, Experiment 2B), 88.46 RLU. The inhibition at 1.25 µM in data set [2] (setting [5]) came to 6.38%. Further, in data set [2] (setting [6]), the inhibition at 2.5 µM amounted to 41.7%. Further, the inhibition at 5 µM in data set [2] (setting [7]) worked out at 123%. For the same compound, the inhibition at 10 µM in data set [2] (setting [8]) came to 83.7%; in data set [2] (setting [9]) it was 43%. Besides, the inhibition at 20 µM in data set [2] (setting [10]) turned out to be 131%.

For `COc1ccc(Br)cc1-c1cc(=O)c2c(O)cccc2o1` [Compound 12b, 2-(5-Bromo-2-methoxyphenyl)-5-hydroxy-4H-chromen-4-one], the melting point fell in the range of 175 to 180 °C. Besides, in data set [1] (setting [3]), the EC50 was above 10 µM. Further, the EC50 in data set [1] (setting [11]) was above 10 µM. Also, the “RLU (relative luciferase units)” value in data set [2] (1.25 μM, Experiment 2B) is on record as −7.32 RLU. In data set [2] (2.5 μM, Experiment 2B), the “RLU (relative luciferase units)” value is 0.82 RLU. The “RLU (relative luciferase units)” value in data set [2] (5 μM, Experiment 2B) was −1.73 RLU. Moreover, in data set [2] (setting [4]), the “RLU (relative luciferase units)” value stood at 445.1 RLU. Further, the “RLU (relative luciferase units)” value in data set [2] (10 μM, Experiment 2B) was found to be 27.57 RLU. The “RLU (relative luciferase units)” value in data set [2] (20 μM, Experiment 2B) worked out at 36.35 RLU. The inhibition at 1.25 µM in data set [2] (setting [5]) is -8.84%. Further, in data set [2] (setting [6]), the inhibition at 2.5 µM was -2.4%. For the same compound, the inhibition at 5 µM in data set [2] (setting [7]) is -3.2%. Moreover, the inhibition at 10 µM in data set [2] (setting [8]) turned out to be 52.4%. Besides, the inhibition at 10 µM in data set [2] (setting [9]) was 10.4%. Besides, in data set [2] (setting [10]), the inhibition at 20 µM came out at 49.1%.
